Assay results as given in US4532122A, “Anti-trypanosomal activity of platinum co-ordination compounds” (The United States of America as represented by the …, priority 1981, dated 1985).
Entries after “also recorded” stand apart in the source; their conditions may differ.

Assays:
[1] = Histopathology of mice treated with cisplatin; type: in vivo
Text: Thus, histopathologic studies were requisite.
Two mice from each of these groups were necropsied at various times following cisplatin treatment. […] Tissues were fixed in 10% neutral buffered formalin, imbedded in paraffin, sectioned to 6-8μ and stained with hematoxylin and eosin.

[2] = system: Trypanosoma rhodesiense; assay: Parasitemia in infected mice, monitored by thick blood film smears; type: in vivo
Experimental: (§1) Anti-trypanosomal activity reported in this invention was determined according to the procedure outlined in the article of L. Rane, et al entitled "Screening Large Numbers of Compounds in a Model Based on Mortality of Trypanosoma rhodesiense Infected Mice," The American Journal of Tropical Medicine and Hygiene, Volume 25, No. 3, pages 395-400 ([…]). To summarize, however, experiments were conducted with the Wellcome CT strain of Trypanosoma rhodesiense originally isolated in 1934. The test system is patterned after the one developed and employed in testing of compounds for activity against Plasmodium berghei malaria [see Osdene, et al, New Series of Potential Antimalarial Agents, J. Med. Chem., 10, 431-434 (1967)]. The test system is based on comparisons of responses to test compounds by ICR/HA Swiss mice infected with the strain as expressed in mean survival times compared with mean survival times of untreated controls.
By using a standard inoculum of 1×10^6 trypanosomes, it was possible to produce a uniform disease fatal to 100% of untreated animals within four to six days, with a mean survival time of 4.45±0.24 days. Test mice (of similar age were females and 21 to 25 grams in weight) received an intraperitoneal injection of 0.5 ml of a 1:50,000 dilution of heparinized heart blood drawn from donor mice infected with Trypanosoma rhodesiense 3 days earlier.
Deaths prior to the fourth day (when untreated controls begin to die) were regarded as not related to the infection and were scored as "toxic deaths." Treated animals were kept under observation for 30 days. Parasitemias were monitored by thick blood film smears (taken from tail veins of the mice) every 2 days for the 30-day course of the experiment. Survivors at the end of 30 days were considered cured. An increase of 100% in mean survival time over control animals was considered as a minimum effective response. In calculating mean survival times, toxic deaths and 30 day survivors were not included.
The therapeutic regimen was that described in Examples 1 through 3.

[3] = system: Trypanosoma rhodesiense; assay: 30-day survival and cure of Trypanosoma rhodesiense-infected mice treated with cisplatin; type: in vivo; details: for cure, survival and damage on concurrent treatment: hydrated, trypanosome-infected mice, cisplatin and disulfiram or diethyl dithiocarbamate
Experimental: Laboratory animals of diverse sorts have been employed in studies with trypanosomes. […] This method has been reported in detail: L. Rane, D. S. Rane, and K. E. Kinnamon, Am. J. Trop. Med. Hyg., 25, 395-400 (1976).
as §1
Test mice (of similar age were females and 21 to 25 grams in weight) received an intraperitoneal injection of 0.5 ml of a 1:50,000 dilution of heparinized heart blood drawn from donor mice infected with Trypanosoma rhodesiense 3 days earlier.
Deaths prior to the fourth day (when untreated controls begin to die) were regarded as not related to the infection and were scored as "toxic deaths." Treated animals were kept under observation for 30 days. Parasitemias were monitored by thick blood film smears (taken from tail veins of the mice) every 2 days for the 30-day course of the experiment. Survivors at the end of 30 days were considered cured. […] In calculating mean survival times, toxic deaths and 30 day survivors were not included.
(§2) All groups included 10 mice except where indicated. Therapy was 3 mg/kg
trypanosomes and subsequently given intraperitoneally for number of days
indicated in first column. Disulfiram (250 mg/kgorally) was given exactly
physiologic saline given subcutaneously four times per day. Survival is
given as % survival 30 days following initial therapy.

[4] = system: Trypanosoma rhodesiense; assay: Subinoculation of tissues (blood, heart, brain) of cured mice into healthy recipient mice; type: in vivo, Trypanosoma rhodesiense in mice; details: donors: cisplatin with hydration plus disulfiram
Text: The considerable and complex nature of problems in various developing countries of tropical Africa have been worsened by the increasing incidents of trypanosomiasis. Drugs for the management of this highly fatal infection have been generally inadequate or/and highly toxic to the victim. The present invention relates to a novel means for alleviating the toxic effects of an agent useful in the treatment of highly fatal trypanosome infections in animals. […] However, cures have been achieved safely by concurrent hydration of the animals and oral dosing with disulfiram. This procedure was firmly established as affording parasitologic cures of the experimental animals by subinoculation of tissues (blood, brain, heart) into recipient mice from mice cured of trypanosomiasis in accordance with the method of this invention.
Some animals suffered relapses 6 to 14 days after the last doses. […] All survivors at 30 days were sacrificed, and tissues (blood; heart; brain) subinoculated into healthy mice. […] Thus, no latent trypanosomes had survived the therapy.

[5] = system: Trypanosoma rhodesiense; details: Kinnamon et al.; peanut oil vehicle; cited from earlier work
[6] = 30-day survival of uninfected (healthy) mice treated with cisplatin, with or without hydration and disulfiram; type: in vivo
Experimental: Ten animals were used in each of three test procedures for the three regimens of drug dosing. The test procedures included: no hydration of mice; hydration of mice; and hydration plus disulfiram administration to the animals.
as §2
indicated. Disulfiram (250 mg/kgorally) was given exactly four hours
Hydration was 3 ml of physiologic saline
given subcutaneously four times per day. Survival is given as % survival
30 days following initial therapy.
^a Average survival from four experiments with 10 mice per experiment

[7] = mice treated with cisplatin alone
[8] = hydration + disulfiram, cisplatin 3 mg/kg/day, 6 days
[9] = with hydration, 3 mg/kg/day, 6 days
[10] = no hydration, 3 mg/kg/day i.p., 7 days
[11] = with hydration, 3 mg/kg/day i.p., 7 days

## N.N.[Cl][Pt][Cl] [Cisplatin, cis-diamminedichloroplatinum (II)]
[1]; cisplatin alone, necropsied on day 18 or later
  renal cortex findings: multifocal accumulations of lymphoplasmacytic inflammatory cells with areas of tubular regeneration
[1]; [7]
  early renal lesions: acute proximal and distal tubular necrosis
  lesions other than renal: colonic and jejunal enteritis, and interstitial pneumonia with edema and vascular congestion
  renal lesions (frequency): highly common
[2]; cisplatin alone, 3 mg/kg/day, 5 days
  clearance of trypanosomes from bloodstream: failed to clear the bloodstream of trypanosomes
[2]; [8]
  clearance of trypanosomes from blood: temporarily cleared of trypanosomes; also recorded: Blood of all mice was cleared of trypanosones
  relapse of parasitemia: relapses of parasitemia occurred; also recorded: Relapse of parasitemia
[2]; no hydration, 3 mg/kg/day, 7 days
  clearance of trypanosomes from blood: Blood of all mice was cleared of trypanosones
[2]; some animals, hydration + disulfiram, cisplatin 6 daily doses
  time of relapse after the last doses: 6 to 14 days
[2]; [9]
  clearance of trypanosomes from blood: Blood of all mice was cleared of trypanosones
  relapse of parasitemia: Relapse of parasitemia
[2]; with hydration, 3 mg/kg/day, 7 days
  clearance of trypanosomes from blood: Blood of all mice was cleared of trypanosones
[3]; 3 mg/kg/day for 7 days
  curative effects on Trypanosoma rhodesiense infections: does exert curative effects
[3]
  cure, survival and damage on concurrent treatment: effected cures of the infection with very good survival and little damage to test animals
[3]; hydration + disulfiram (250 mg/kg orally), cisplatin 3 mg/kg/day i.p., 6 days, average of four experiments
  30-Day survival of trypanosome-infected mice: 62.5%
[3]; hydration plus disulfiram, cisplatin 3 mg/kg daily for seven days
  cure of Trypanosoma rhodesiense infection: effective in curing mice; also recorded: fully curative, and not merely palliative
[3]; [10]
  30-Day survival of trypanosome-infected mice: 0%
[3]; [11]
  30-Day survival of trypanosome-infected mice: 57%
[3]; with hydration, 7-day regimen
  cure of Trypanosoma rhodesiense infection: effective in curing mice
[4]
  trypanosome infection in recipient mice after subinoculation of tissues of survivors: did not produce the trypanosomiasis in the recipient mice; also recorded: No recipient mice developed trypanosome infection
[5]
  anti-trypanosomal effects in prior work: anti-trypanosomal effects at dose levels which were unsuitably toxic to the test animals
[6]; hydration + disulfiram (250 mg/kg orally), cisplatin 3 mg/kg/day i.p., 6 days
  30-Day survival: 100%
[6]; hydration + disulfiram (250 mg/kg orally), cisplatin 3 mg/kg/day i.p., 7 days, average of four experiments
  30-Day survival: 100%
[6]; hydration with or without disulfiram
  mortality from cisplatin administration: ameliorated by hydration, with or without use of disulfiram
[6]; no hydration, 3 mg/kg/day i.p., 5 days
  30-Day survival: 100%
[6]; no hydration, 3 mg/kg/day i.p., 6 days
  30-Day survival: 10%
[6]; [10]
  30-Day survival: 0%
[6]; with hydration, 3 mg/kg/day i.p., 6 days
  30-Day survival: 100%
[6]; [11]
  30-Day survival: 90%

## CCN(CC)C(=S)SSC(=S)N(CC)CC [Disulfiram, bis-(diethylthiocarbamoyl) disulfide]
[1]; oral disulfiram given with cisplatin
  protection from toxic effects of cisplatin: protected the kidneys and gastrointestinal tracts from the toxic effects
[3]; disulfiram alone, model test system
  anti-trypanosomal activity of disulfiram alone: lack anti-trypanosomal activity
[3]
  cure, survival and damage on concurrent treatment: effected cures of the infection with very good survival and little damage to test animals

## CCN(CC)C(=S)S [diethyl dithiocarbamate]
[3]
  cure, survival and damage on concurrent treatment: effected cures of the infection with very good survival and little damage to test animals
